{
  "source": "paper PMC2751796",
  "about": "(Pharmacology & therapeutics, 2009)",
  "key": {"[1]": {"conditions": "ref Heideman et al., 1986; cited from earlier work"}, "[2]": {"biological_target": "rOAT3", "conditions": "inhibition of rOAT3-mediated 6-mercaptopurine transport; ref Mori et al., 2004; cited from earlier work"}, "[3]": {"conditions": "cited from earlier work"}, "[4]": {"conditions": "mouse, in vivo; cited from earlier work"}, "[5]": {"system": "MRPs, organic anion transporters", "conditions": "ref Potschka et al., 2003; cited from earlier work"}, "[6]": {"system": "Mrp2", "conditions": "ref Potschka et al., 2003; cited from earlier work"}, "[7]": {"conditions": "highest dose; ref Bankstahl et al., 2008; cited from earlier work"}, "[8]": {"conditions": "mice, 50 mg/kg, PO; ref Hubensack et al., 2008; cited from earlier work"}, "[9]": {"system": "P-gp", "conditions": "150 mg, iv; ref Kurnik et al., 2008; cited from earlier work"}, "[10]": {"system": "Bcrp", "conditions": "cited from earlier work"}, "[11]": {"system": "P-gp and BCRP", "conditions": "ref de Vries et al., 2007; cited from earlier work"}, "[12]": {"system": "P-gp", "conditions": "ref de Vries et al., 2007; cited from earlier work"}, "[13]": {"system": "P-gp", "conditions": "AUC, cited from earlier work"}, "[14]": {"system": "Bcrp", "conditions": "ref de Vries et al., 2007; cited from earlier work"}, "[15]": {"system": "P-gp", "conditions": "cited from earlier work"}, "[16]": {"system": "P-gp", "design": "species or system human", "conditions": "at 5.6 μM cyclosporine blood concentration"}, "[17]": {"system": "P-gp", "conditions": "ref Passchier et al., 2003; cited from earlier work"}, "[18]": {"system": "P-gp", "conditions": "rhesus monkey, 8 mg/kg; ref Zoghbi et al., 2008; cited from earlier work"}, "[19]": {"system": "Ent1", "conditions": "mice; ref Lepist et al., 2008; cited from earlier work"}, "[20]": {"conditions": "intraventricularly injected, ref Bode et al., 1980"}, "[21]": {"conditions": "Elacridar (50 and 100 mg/kg, PO), ref de Vries et al., 2007"}},
  "note": "Read-outs that look alike come from different tables or passages of the source.",
  "data": [
    {"smiles": "CN(Cc1cnc2nc(N)nc(N)c2n1)c1ccc(C(=O)N[C@@H](CCC(=O)O)C(=O)O)cc1", "note": "[Methotrexate]", "values": [
      {"measurement": "CNS distribution in untreated subjects (ventricular CSF / plasma AUC ratio)", "setting": "[1]", "value": "0.02 (ventricular CSF / plasma AUC ratio)"},
      {"measurement": "Ki relative to estimated brain concentration in patients receiving chemotherapy", "setting": "[2]", "value": 17.5, "unit": "fold"},
      {"measurement": "Increase of CSF concentrations by probenecid", "setting": "[3]; 4 patients, ref Howell et al., 1979", "value": "2.8 to 4.2", "unit": "fold"},
      {"measurement": "Effect of probenecid 1250 mg/m^2 daily on efflux kinetics", "setting": "[3]; [20]", "value": "did not change"},
      {"measurement": "Extension of terminal half life (CSF) by probenecid 2500 mg/m^2", "setting": "[3]; [20]", "value": "up to 53%"},
      {"measurement": "CSF concentrations with vincristine vs. monotherapy", "setting": "[3]; patient with lymphoma, ref Tejada & Zubrod, 1979", "value": 2.5, "unit": "fold"},
      {"measurement": "Effect of vindesine on CSF concentration", "setting": "[3]; ref Tubiana et al., 1985", "value": "did not affect"}
    ]},
    {"smiles": "CCC1(c2ccccc2)C(=O)NC(=O)NC1=O", "note": "[Phenobarbital]", "values": [
      {"measurement": "Brain uptake ratio in WT, untreated mice", "setting": "[4]", "value": "∼ 0.27-0.4"}
    ]},
    {"smiles": "O=C1NC(=O)C(c2ccccc2)(c2ccccc2)N1", "note": "[Phenytoin]", "values": [
      {"measurement": "Enhancement of brain penetration and anticonvulsant activity by probenecid", "setting": "[5]", "value": "up to two-fold"},
      {"measurement": "Extracellular concentrations and anticonvulsant activity vs. rats that do not lack Mrp2", "setting": "[6]", "value": "two-fold greater"}
    ]},
    {"smiles": "COc1cc2c(cc1OC)CN(CCc1ccc(NC(=O)c3cc(OC)c(OC)cc3NC(=O)c3cnc4ccccc4c3)cc1)CC2", "note": "[Tariquidar]", "values": [
      {"measurement": "Tariquidar blood concentration", "setting": "[7]", "value": 1402, "unit": "ng/mL"},
      {"measurement": "Tariquidar brain concentration", "setting": "[7]", "value": 4131, "unit": "ng/mL"},
      {"measurement": "Inhibitor concentration (brain)", "setting": "[8]", "value": "3-9 nmol/g (brain) (∼2-fold greater in plasma)"},
      {"measurement": "Inhibition of lymphocyte P-gp activity", "setting": "[9]", "value": "completely inhibited"}
    ]},
    {"smiles": "CC[C@@]1(O)C(=O)OCc2c1cc1n(c2=O)Cc2cc3c(CN(C)C)c(O)ccc3nc2-1", "note": "[Topotecan]", "values": [
      {"measurement": "Increase of oral bioavailability with elacridar in Mdr1a/b-/- mice", "setting": "[10]; ref Jonker et al., 2000", "value": "more than 6 fold"},
      {"measurement": "Increase of placental transfer with elacridar in Mdr1a/b-/- mice", "setting": "[10]; ref Jonker et al., 2000", "value": "> 2", "unit": "fold"},
      {"measurement": "Increase of brain distribution with elacridar in Mdr1a/b-/- mice", "setting": "[10]; ref de Vries et al., 2007", "value": 1.6, "unit": "fold"},
      {"measurement": "Increase of brain-to-plasma AUC ratio in Mdr1a/b-/-/Bcrp-/- mice", "setting": "[11]", "value": 3.2, "unit": "fold"},
      {"measurement": "Brain-to-plasma AUC ratio in Mdr1a/b-/- mice compared to WT controls", "setting": "[12]", "value": "two times higher"},
      {"measurement": "Fold change in brain uptake ratio in inhibitor-treated vs. control mice", "setting": "[13]; [21]", "value": 1.6, "unit": "fold"},
      {"measurement": "Fold change in brain uptake ratio in inhibitor-treated vs. control mice (value corrected for drug in vasculature)", "setting": "[13]; [21]", "value": 1.7, "unit": "fold"},
      {"measurement": "Fold change in brain uptake ratio in inhibitor-treated vs. control mice", "setting": "[13]; Gefitinib (200 mg/kg, PO), microdialysis, ref Zhuang et al., 2006", "value": "1.7 ^b, AUC fold"},
      {"measurement": "Brain-to-plasma AUC ratio in Bcrp-/- mice compared to WT controls", "setting": "[14]", "value": "not different"}
    ]},
    {"smiles": "CN([11CH3])C(=O)C(CCN1CCC(O)(c2ccc(Cl)cc2)CC1)(c1ccccc1)c1ccccc1", "note": "[[^11C]-Loperamide]", "values": [
      {"measurement": "Increase in distribution of radioactivity at the human BBB on P-gp inhibition", "setting": "[15]; data obtained so far", "value": "~100", "unit": "%"},
      {"measurement": "Increase of brain [^11C]-loperamide with cyclosporine in humans", "setting": "[15]; intravenous infusion 10 mg/kg/2 hr, ref Passchier et al., 2008", "value": "~110", "unit": "%"},
      {"measurement": "Predicted increase in CNS distribution in humans", "setting": "[16]", "value": "56-412%"},
      {"measurement": "Increase in brain radioactivity with cyclosporine in pigs", "setting": "[17]", "value": "up to 7 fold"},
      {"measurement": "Increase in plasma radioactivity with DCPQ", "setting": "[18]", "value": 16, "unit": "%"}
    ]},
    {"smiles": "OC[C@H]1O[C@@H](n2cnc3c(N[C@@H]4CCOC4)ncnc32)[C@H](O)[C@@H]1O", "note": "[tecadenoson]", "values": [
      {"measurement": "Decrease in brain AUC with nitrobenzyl-mercaptopurine ribonucleoside", "setting": "[19]", "value": 2.5, "unit": "fold"}
    ]}
  ]
}
